Columns and labels:
Format in all cases: in vivo, rat
[1] = tested on: acetic acid (AA)-induced somatic hypersensitivity in a rodent model; test: Somatic sensitivity assessment: von Frey hind paw withdrawal after intracolonic acetic acid; details: rats; for inhibition of AA-induced somatic hypersensitivity, agent alone: oral, effective dose not given (0.001-1 mg/kg dosed); for effect of 0.001 mg/kg dose alone on somatic hypersensitivity: 0.001 mg/kg oral, agent alone
Description: Induction of Acute Visceral and Somatic Hypersensitivity: Visceral and somatic hypersensitivity were induced by infusing dilute (1.5 ml at 0.6%) acetic acid (AA) into the rat colon via a catheter (Intramedic PE 90 tubing) inserted via the anus to the level of the mid-colon. Within 60 mins colonic and somatic hypersensitivity was evident. Somatic Sensitivity Assessment: Von Frey filaments were used to determine the level of somatic sensitivity in all animals receiving intracolonic infusion of AA. The Von Frey instrument measures the level of somatic sensitivity by recording the minimal force required to elicit hind paw withdrawal. The animals were placed in a mesh-bottomed Von Frey caging apparatus and a nylon filament was steadily pushed against the rat's foot pad until withdrawal of the hind paw. The force in grams which elicited hind paw withdrawal was then recorded. Test Compounds: Following surgery, rats were pre-dosed with Palonosetron (1-hr pre-dose), Netupitant (2-hr pre-dose) or methyl cellulose vehicle. Palonosetron and Netupitant were supplied by […] Healthcare Inc. and were stored at 4° C. until prepared for dosing as a suspension in 1% methyl cellulose solution. The drug suspensions were prepared so that each rat received an oral dosing volume of 0.5 ml per 100 g body weight for doses of 0.001, 0.01, 0.1 or 1 mg/kg. Compounds were prepared fresh on the day of use. Statistical Analysis: To determine statistical significance between multiple control and treatment groups, data was compared using one-way ANOVA followed by a Bonferroni post-test. Results were deemed significant when p-values were less than 0.05.

SNL rats = test: Behavioural assessment of the neuropathic state: paw withdrawal to von Frey filaments and acetone; details: for Paw Withdrawal Frequency (PWD), 2 g vF Filament / Paw Withdrawal Frequency (PWD), 6 g vF Filament / Paw Withdrawal Frequency (PWD), Cooling Acetone: mean ± S.E.
From the text: A model of experimental neuropathic pain with symptoms of allodynia and hyperalgesia was established by tightly ligating the L5 and L6 spinal nerves as previously described (Kim and Chung, 1992). Within a sterile theatre, rats weighing approximately 130-150 g were anaesthetised (1:1 O2:N2O, 3% halothane for induction, 1% maintenance) and following a small left-side incision at approximately L4-S2, paraspinal muscle and fat was removed from spinous processes. Part of the L6 traverse process was clipped with rangeurs to expose the parallel-lying L4 and L5 spinal nerves. The L5 nerve was isolated and hooked with a finely-pulled glass rod and tightly tied with non-absorbable 6-0 silk thread distal to the dorsal root ganglion (and proximal to the formation of the sciatic nerve). The L6 nerve was then hooked from under the sacrum and tied in a similar way. Haemostasis was confirmed and the wound was sutured with 3-0 absorbable silk. The surrounding skin was pulled together and secured over the injury with wound clips. Rats recovered in an incubator, and once it had been confirmed that they had no observable motor impairment in their left hindpaw, were re-housed in cages as above. Sham surgery was performed in the same environment and under the same conditions except nerves were not hooked or ligated.
On post-operative days 2, 7, 9 and 14, behavioural signs of punctate mechanical and cooling hypersensitivity were assessed in the left ipsilateral hindpaw relative to the right contralateral hindpaw in awake and alert rats. Rats were individually placed in clear acrylic cubes on an elevated floor of wire mesh, and following a period of acclimation (30 minutes), mechanical sensitivities were determined by paw withdrawal to von Frey (vF) filaments with bending forces 2 g and 6 g (tested in consecutive, ascending force). Each filament was applied to the plantar surface of the paw for ˜2-3 s with enough force to cause buckling, and for each animal this was repeated 10 times at set positions on each paw. […] Cold hypersensitivity was assessed by applying a drop of acetone to each paw 5 times during each testing period, with each application separated by an interval of at least 5 minutes. Withdrawal frequency was quantified as =(number of foot withdrawals/10 or 5 trials as appropriate).

SNL and Sham rats = test: Rotarod motor performance; details: FIG. 3, 0.03, 0.3 and 3 mg/kg
From the text: The rotarod was also used to assess potential effects on motor performance of Netupitant and Palonosetron. Acceleration of the rotarod was set to increase from 0 to 20 revolutions per minute over the period of one minute. Due to initial, non-linear acceleration, rats were placed on the rotarod locked at a speed of 8 revolutions per minute. The rotarod was then set to accelerate and the latency to fall from the rotarod was timed from this point.

Cc1ccccc1-c1cc(N2CCN(C)CC2)ncc1N(C)C(=O)C(C)(C)c1cc(C(F)(F)F)cc(C(F)(F)F)c1 [Netu, 2-[3,5-bis(trifluoromethyl)phenyl]-N,2-dimethyl-N-[4-(2-methylphenyl)-6-(4-methylpiperazin-1-yl)pyridin-3-yl]propanamide]
inhibition of AA-induced somatic hypersensitivity, agent alone [1]: significantly inhibited | effect of 0.001 mg/kg dose alone on somatic hypersensitivity [1]: non-effective | effect on behavioral hypersensitivities (withdrawal responses to vF2 g, vF6 g, acetone) (SNL rats; FIG. 7, SNL rats, 1 mg/kg): appears to inhibit behavioral hypersensitivities | Paw Withdrawal Frequency (PWD), 2 g vF Filament (SNL rats; SNL rats, Netu 0.1 mg/kg s.c.): 4.1 ± 1.0 | Paw Withdrawal Frequency (PWD), 6 g vF Filament (SNL rats; SNL rats, Netu 0.1 mg/kg s.c.): 6.7 ± 1.8 | Paw Withdrawal Frequency (PWD), Cooling Acetone (SNL rats; SNL rats, Netu 0.1 mg/kg s.c.): 1.9 ± 0.3 | Paw Withdrawal Frequency (PWD), 2 g vF Filament (SNL rats; SNL rats, Netu 1 mg/kg s.c.): 3.8 ± 1.2 | Paw Withdrawal Frequency (PWD), 6 g vF Filament (SNL rats; SNL rats, Netu 1 mg/kg s.c.): 6.2 ± 1.5 | Paw Withdrawal Frequency (PWD), Cooling Acetone (SNL rats; SNL rats, Netu 1 mg/kg s.c.): 2.7 ± 0.5 | Paw Withdrawal Frequency (PWD), 2 g vF Filament (SNL rats; SNL rats, Netu 10 mg/kg s.c.): 3.9 ± 1.1 | Paw Withdrawal Frequency (PWD), 6 g vF Filament (SNL rats; SNL rats, Netu 10 mg/kg s.c.): 5.9 ± 1.0 | Paw Withdrawal Frequency (PWD), Cooling Acetone (SNL rats; SNL rats, Netu 10 mg/kg s.c.): 2.0 ± 0.4 | effect in animal models of allodynia/neuropathic pain, agent alone (SNL rats; agent alone): zero or minimal effect

Cl.O=C1c2cccc3c2[C@H](CCC3)CN1[C@@H]1CN2CCC1CC2 [Palo, (3aS)-2-[(S)-1-Azabicyclo[2.2.2]oct-3-yl]-2,3,3a,4,5,6-hexahydro-1-oxo-1Hberiz[de]isoquinoline]
motor performance, total time spent on a rotarod (SNL and Sham rats): did not impair motor performance | inhibition of AA-induced somatic hypersensitivity, agent alone [1]: significantly inhibited | effect of 0.001 mg/kg dose alone on somatic hypersensitivity [1]: non-effective | effect on the number of paw withdrawals to vF 2 g, vF 6 g and acetone (SNL rats; FIG. 2, seen in the SNL rats only): dose related reduction | Paw Withdrawal Frequency (PWD), 2 g vF Filament (SNL rats; SNL rats, Palo 0.03 mg/kg s.c.): 2.8 ± 0.8 | Paw Withdrawal Frequency (PWD), 6 g vF Filament (SNL rats; SNL rats, Palo 0.03 mg/kg s.c.): 5.2 ± 1.5 | Paw Withdrawal Frequency (PWD), Cooling Acetone (SNL rats; SNL rats, Palo 0.03 mg/kg s.c.): 1.2 ± 0.4 | Paw Withdrawal Frequency (PWD), 2 g vF Filament (SNL rats; SNL rats, Palo 0.3 mg/kg s.c.): 3.1 ± 0.7 | Paw Withdrawal Frequency (PWD), 6 g vF Filament (SNL rats; SNL rats, Palo 0.3 mg/kg s.c.): 4.1 ± 1.3 | Paw Withdrawal Frequency (PWD), Cooling Acetone (SNL rats; SNL rats, Palo 0.3 mg/kg s.c.): 1.2 ± 0.5 | Paw Withdrawal Frequency (PWD), 2 g vF Filament (SNL rats; SNL rats, Palo 3 mg/kg s.c.): 1.4 ± 0.6 | Paw Withdrawal Frequency (PWD), 6 g vF Filament (SNL rats; SNL rats, Palo 3 mg/kg s.c.): 1.1 ± 0.4 | Paw Withdrawal Frequency (PWD), Cooling Acetone (SNL rats; SNL rats, Palo 3 mg/kg s.c.): 1.9 ± 0.3
